In US7556938B1, “Nucleic acids encoding potassium channel interactors” (Millennium Pharmaceuticals, Inc., priority 1998, dated 2009):

Tests used:
Kv4.2/KChIP1 = target: T1, Kv4.2/KChIP1 (Rattus norvegicus, UniProt Q63881); assay: AA modulation of Kv4.2/KChIP1 current in CHO cells; assay type: cell-based; conditions: Kv4.2/KChIP1, 10 μM AA
T1 construct: expressed in transfected cells; host or cells: CHO cells
T1 sequence (Q63881 1-630): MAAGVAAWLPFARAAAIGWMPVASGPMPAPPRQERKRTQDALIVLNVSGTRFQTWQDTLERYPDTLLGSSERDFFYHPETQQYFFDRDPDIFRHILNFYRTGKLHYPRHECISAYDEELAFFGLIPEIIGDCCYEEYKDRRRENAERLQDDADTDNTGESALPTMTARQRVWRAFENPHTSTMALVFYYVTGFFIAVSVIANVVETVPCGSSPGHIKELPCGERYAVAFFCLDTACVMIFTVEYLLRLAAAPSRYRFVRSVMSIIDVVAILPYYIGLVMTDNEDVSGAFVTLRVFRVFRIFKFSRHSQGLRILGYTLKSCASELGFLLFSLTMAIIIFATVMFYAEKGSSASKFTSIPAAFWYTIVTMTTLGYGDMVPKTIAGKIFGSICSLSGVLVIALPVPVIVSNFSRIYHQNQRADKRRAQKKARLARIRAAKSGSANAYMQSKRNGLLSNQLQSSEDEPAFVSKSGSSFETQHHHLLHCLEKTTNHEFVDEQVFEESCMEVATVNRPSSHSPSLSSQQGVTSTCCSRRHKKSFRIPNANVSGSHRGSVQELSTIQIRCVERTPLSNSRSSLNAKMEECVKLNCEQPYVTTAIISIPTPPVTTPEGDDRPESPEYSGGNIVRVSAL
T1 sequence (Q8R426 1-216 isoform Q8R426-2 partner): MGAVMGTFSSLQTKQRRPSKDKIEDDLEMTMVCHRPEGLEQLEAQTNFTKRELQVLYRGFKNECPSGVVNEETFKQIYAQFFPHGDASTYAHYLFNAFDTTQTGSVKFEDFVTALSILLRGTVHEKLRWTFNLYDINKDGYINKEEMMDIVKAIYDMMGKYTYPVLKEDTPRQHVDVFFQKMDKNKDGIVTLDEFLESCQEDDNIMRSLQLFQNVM
Description: HEK 293 and CHO cells were used for recordings 1-3 days after a transient transfection. Whole-cell currents were recorded from cells expressing GFP, identified by their green fluorescence. […] After Gigaseal and ruptured whole-cell configuration access, resistance was less than 10 MOhms. Whole-cell bath solutions were made from a 10× Hank's balanced salt solution (GibcoBRL) with the following final concentration (in mM): 138 NaCl, 5.4 KCl, 1.3 MgCl2, 1.3 CaCl2, 5.5 D-Glukos and 10 HEPES, pH 7.4. The intracellular electrode solution consisted of (in mM) 140 KCl, 10 HEPES, 10 EGTA, 0.5 MgCl2, pH 7.3. All chemicals were from Sigma (St. Louis, Mo.) or Fisher Scientific (Houston, Tex.). Membrane currents were recorded using a EPC9 patch-clamp amplifier (HEKA, Germany). Data were analyzed using Matlab (Natick, Ma), and leak subtracted if necessary. All experiments were done at room temperature. […]

Kv1.1/Kvβ1 = target: T2, Kv1.1/Kvβ1 (Rattus norvegicus, UniProt P10499); assay: AA modulation of Kv1.1/Kvβ1 current in Xenopus oocytes; assay type: cell-based; conditions: Kv1.1/Kvβ1, 10 μM AA, listed as AA
T2 construct: expressed in transfected cells; host or cells: Xenopus oocytes
Description: Frogs underwent no more than two surgeries and surgeries were performed by well established techniques. Frogs were anesthetized with ice. Total cRNA (1-10 ng) was injected into stage IV Xenopus oocytes that were harvested the previous day. The Xenopus oocytes were incubated in ND96 containing (in mM) 96 NaCl, 2 KCl, 1.8 CaCl2, 1 MgCl2, 5 HEPES, pH 7.6, plus (Gentamycin 50 μg/ml) at 18° C. Xenopus oocytes were studied 3-7 days after injection. The two-electrode voltage-clamp recordings were performed in ND96 solution using a TURBO TEC 03 Clamp Amplifier (ALA Scientific Instruments, Westbury, N.Y.). Both electrodes were filled with 3 M KCl and had electrode resistances ranging from 0.2-1 MOhm. The current signals were filtered at 1000 Hz before transferred on a PC (Gateway, Calif.) using the PULSE software (HEKA, Germany).
In this example, the foregoing was tested by measuring two alpha/auxiliary complexes: Kv4.3/KChIP1 and Kv1.1/Kvβ1. (Kvβ1, which is one of the classic potassium channel beta subunits, dramatically changes Kv1.1 kinetics). Kv4.3/KChIP and Kv1.1/Kvβ1 were expressed respectively in Xenopus oocytes and their resulting currents were recorded in the presence or absence of […] AA. […] Kinetically, […] was much more sensitive to AA modulation than was Kv1.1/Kvβ1 (Table 4).

T2 sequence (P10499 whole entry): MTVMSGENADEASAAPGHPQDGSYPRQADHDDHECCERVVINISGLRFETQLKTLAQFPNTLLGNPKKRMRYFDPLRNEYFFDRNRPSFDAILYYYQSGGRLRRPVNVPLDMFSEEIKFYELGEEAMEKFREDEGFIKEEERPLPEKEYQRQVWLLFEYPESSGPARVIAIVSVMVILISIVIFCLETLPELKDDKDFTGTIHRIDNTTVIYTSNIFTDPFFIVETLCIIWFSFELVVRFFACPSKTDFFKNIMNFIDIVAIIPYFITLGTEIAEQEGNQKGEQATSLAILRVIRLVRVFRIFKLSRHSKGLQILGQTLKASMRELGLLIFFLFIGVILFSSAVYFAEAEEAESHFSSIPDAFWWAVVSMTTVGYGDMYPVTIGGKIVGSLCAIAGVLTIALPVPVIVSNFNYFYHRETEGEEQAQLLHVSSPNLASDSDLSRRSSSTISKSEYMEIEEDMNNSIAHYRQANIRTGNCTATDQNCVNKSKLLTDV

CCCCC/C=C\C/C=C\C/C=C\C/C=C\CCCC(=O)O [arachidonic acid]
Peak amplitude (pA ± SEM) (Kv4.2/KChIP1): 2827 ± 496 pA | Inactivation time constant (ms ± SEM) (Kv4.2/KChIP1; listed as AA): 37 ± 3 ms | Inactivation time constant (ms ± SEM) (Kv1.1/Kvβ1): 9 ± 1 ms | Peak amplitude (μA ± SEM) (Kv1.1/Kvβ1): 14±1 μA
